Values belong to the molecule of their own block, whether it stands above or below them.
Experiments:
[1] = system: subjects of the Adenoma Prevention with Celecoxib Trial; details: ref [32], cited from earlier work
[2] = Plasma pharmacokinetics by LC-MS/MS
[3] = system: metastatic colorectal cancer; details: second-line single-agent; ref [33]; cited from earlier work
[4] = capecitabine 1,000 mg/m^2 alone (run-in, Pre), mean ± SD in 8 patients
[5] = capecitabine 1,000 mg/m^2 in combination with 250 mg gefitinib, C1D1, mean ± SD in 8 patients

Compound: Cc1ccc(-c2cc(C(F)(F)F)nn2-c2ccc(S(N)(=O)=O)cc2)cc1 [celecoxib]
subjects who experienced cardiovascular events ([1]; 35 of 1,356 subjects who received celecoxib): 2.6%
increase in risk of major fatal and nonfatal cardiovascular events ([1]; compared with placebo): 2.5 fold
steady-state plasma trough levels of celecoxib ([2]; across any of the doses tested (data not shown)): Neither capecitabine nor gefitinib affected

Compound: O=C1[O][Pt]2([NH][C@@H]3CCCC[C@H]3[NH]2)[O]C1=O [oxaliplatin]
response rate [3]: 10%

effect of gefitinib on the AUC, Cmax, t1/2, and clearance of capecitabine ([2]; alone (run-in day) vs in combination with gefitinib (cycle 1 day 1)): no significant effects
CL/F [2, 4]: 272 ± 120 L/h
t1/2λ [2, 4]: 0.93 ± 0.92 h
CL/F [2, 5]: 300 ± 204 L/h
t1/2λ [2, 5]: 1.09 ± 0.80 h
Vd/F ([2]; human, plasma, oral, 1000 mg/m^2): 363 ± 364 L
AUC(0-inf) ([2]; human, plasma, oral, AUC0→∞, capecitabine 1,000 mg/m^2 in combination with 250 mg gefitinib, C1D1, mean ± SD in 8 patients): 13.2 ± 8.1 µM·h
Compound: CCCCCOC(=O)Nc1nc(=O)n([C@@H]2O[C@H](C)[C@@H](O)[C@H]2O)cc1F [capecitabine]

effect of capecitabine on the trough levels of gefitinib ([2]; across dose levels): did not affect
Compound: COc1cc2ncnc(Nc3ccc(F)c(Cl)c3)c2cc1OCCCN1CCOCC1 [gefitinib]

Reference: publication PMC2813692 (Molecular cancer therapeutics, 2008)
